Among the data in PubChem BioAssay AID1645864 (Buhrlage Lab, Dana-Farber Cancer Institute and Novartis …, 2021) are IC50 values, retold here.

Calls of active or inactive are those of the source.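 The calls were made as follows: active = maximal inhibition of USP17 at or above 30% in the confirmation dose-response, a value not among the printed readouts; inactive = the rest.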 A value given as a limit tells only on which side of the number the result lay.

The target in this assay is Ubiquitin carboxyl-terminal hydrolase 17-like protein 5 (Homo sapiens) (UniProt A8MUK1). The assay is described as follows: ubiquitin-specific protease 17 inhibitors, concentration series, biochemical, verification of primary actives (AID 1645864). The conditions noted are these: purified USP17, ubiquitin-rhodamine cleavage fluorescence, 3 h.
Ubiquitin carboxyl-terminal hydrolase 17-like protein 5 (Homo sapiens), sequence (A8MUK1 whole entry, looked up): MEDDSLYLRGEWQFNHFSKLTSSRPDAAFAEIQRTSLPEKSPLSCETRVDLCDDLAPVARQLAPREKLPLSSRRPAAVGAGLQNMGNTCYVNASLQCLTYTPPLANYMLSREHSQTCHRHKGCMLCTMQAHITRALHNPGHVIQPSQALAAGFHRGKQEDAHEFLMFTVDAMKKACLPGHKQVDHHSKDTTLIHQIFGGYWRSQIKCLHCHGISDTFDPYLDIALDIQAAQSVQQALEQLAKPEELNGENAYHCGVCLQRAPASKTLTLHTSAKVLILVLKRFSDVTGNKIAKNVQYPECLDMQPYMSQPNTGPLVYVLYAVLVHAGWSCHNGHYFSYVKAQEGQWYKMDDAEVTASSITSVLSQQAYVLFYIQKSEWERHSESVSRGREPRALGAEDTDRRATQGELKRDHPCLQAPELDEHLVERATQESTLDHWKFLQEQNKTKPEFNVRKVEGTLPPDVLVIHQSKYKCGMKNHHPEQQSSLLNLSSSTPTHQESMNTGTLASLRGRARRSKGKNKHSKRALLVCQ
Take `Cc1cnnn1-c1ccc(C(=O)Nc2cc(Cl)ccc2Cl)cc1`: the IC50 is 29.2 µM.

Regarding `O=c1c2c(ccn1Cc1cc(F)ccc1F)ccn2Cc1cccnc1`, the IC50 was > 50 µM (inactive).

Consider `COC1=CC(=O)c2c(O)c(C)c(CC(C)=O)c(O)c2C1=O`, for which the IC50 is 2.87 µM.

Regarding `O=C(CCCn1c(=O)c2ccccc2n(CC(=O)NCc2ccccc2Cl)c1=O)NCc1ccc2c(c1)OCO2`, the half-maximal inhibitory concentration (IC50) is 2.2 µM.

For `CCOc1ccc(NC(=O)c2cc(-c3ccccc3)c(N3CCOCC3)s2)cc1`, the IC50 was 19.9 µM.

`COc1ccc(Nc2ncc(C(=O)Nc3ccc(Oc4ccccc4)cc3)c3ccccc23)cc1`: the IC50 is > 50 µM (inactive).

For `Cc1ccc(NC(=O)C2CCN(c3cncnc3N3CCCC3)CC2)cc1`, the IC50 was > 50 µM (inactive).

`O=C(c1cc2ccccc2o1)N1CC=C(c2ccccc2)CC1`: the IC50 was > 50 µM (inactive).

Turning to `COc1ccc(-c2cc(C(C)=O)c(C)n2CCC(=O)Nc2ccc(OC)cc2OC)cc1`, the IC50 is 40.7 µM.

`COc1cccc(N2CCN(C(=O)c3cc(NC(C)=O)cc4nc(C)ccc34)CC2)c1`: the IC50 is > 50 µM (inactive).

Regarding `CCN1C(SCc2ccc(F)cc2)=NS(=O)(=O)c2ccccc21`, the IC50 was > 50 µM (inactive).

With `CCOc1ccccc1C(=O)Nc1ccc2c(c1)Sc1ncccc1C(=O)N2C`, the IC50 was > 50 µM (inactive).

For `CCOc1ccc(-n2c(SCC(=O)N3CC(=O)Nc4ccccc43)nnc2-c2ccc(OC)cc2)cc1`, the IC50 was 42.5 µM.

`COc1ccc(NC(=O)COc2cc(CSc3ccccc3)ncc2OC)cc1`: the IC50 is 43.7 µM.

`CC(C)=CCCC1(C)OC2=C(C(=O)c3cc(O)cc(O)c3C2=O)[C@H]2C=C(C)CC[C@H]21` (some centres undefined): the IC50 was 9.83 µM.

For the compound `COc1cccc(-c2nc3cnccn3c2NCc2ccc3c(c2)OCO3)c1`, the IC50 is > 50 µM (inactive).

For the compound `Cc1ccc(CN2CCCn3nc(C(=O)NCc4ccccc4C)cc3C2=O)cc1`, the IC50 is 40.1 µM.

Turning to `Cc1cc(C2CC(=O)Nc3c2c(C)nn3-c2nc3ccccc3[nH]2)c(C)s1` (centres undefined), the IC50 is 23 µM.

Consider `CCS(=O)(=O)N1CCc2cc(C(=O)Nc3ccc4c(c3)OCCO4)ccc21`, for which the IC50 is > 50 µM (inactive).

Take `COc1ccc(CCNC(=O)CCCn2c(=O)c3ccccc3n(CC(=O)OCc3ccccc3)c2=O)cc1OC`: the IC50 was 23.1 µM.

`CCOC(=O)c1ccc(-n2c(=O)c(C#N)cc3c(=O)n4ccccc4nc32)cc1`: the IC50 is > 50 µM (inactive).

As to `Cc1cc(C)cc(NC(=O)CSc2ccc(-c3ccncc3)nn2)c1`, the IC50 was > 50 µM (inactive).

Regarding `COc1ccc(COC(=O)C2=C(C)NC(=O)CC2c2cccc([N+](=O)[O-])c2)cc1` (centres undefined), the IC50 was > 50 µM (inactive).

As for `O=C1C=CC(O)C2C1CC13SSC4(CC5C(=O)C=CC(O)C5N4C1=O)C(=O)N23` (centres undefined), the IC50 is > 50 µM (inactive).

As for `O=C(NCc1ccc(F)cc1)C1CCCN(c2cnc3nccnc3c2)C1` (centres undefined), the IC50 is > 50 µM (inactive).

Consider `O=C(COc1nc2ccccc2nc1N1CCOCC1)Nc1cccc(S(=O)(=O)N2CCCCC2)c1`, for which the IC50 was > 50 µM (inactive).

Consider `Cc1ccc(Cn2nnc(-c3ccccc3Cl)n2)cc1`, for which the IC50 was > 50 µM (inactive).

Take `CC(C)(C)C(=O)[C@@H]1[C@@H](C(=O)c2ccc3c(c2)OCO3)[C@@]2(C(=O)Nc3ccccc32)[C@H]2c3ccccc3C=CN12`: the IC50 was 31.3 µM.

In the case of `CN(C)c1cc(-n2cnc(C(=O)NCc3ccccc3Cl)c2)ncn1`, the IC50 is 41.3 µM.

As for `O=C(NCCc1ccccc1)c1nnn(Cc2cccc(Cl)c2)c1-n1cccc1`, the IC50 was > 50 µM (inactive).

In the case of `COc1ccc(CCNC(=O)c2cn(-c3ccc(F)cc3)nn2)cc1OC`, the concentration for half-maximal inhibition (IC50) is 18.7 µM.

With `O=C(CN1CCCc2ccccc21)Nc1ccc(N2CCOCC2)cc1`, the IC50 is > 50 µM (inactive).

Take `CCOc1ccc(NC(=O)Cn2c(=O)n(CCC(=O)NCc3ccccc3OC)c(=O)c3ccccc32)cc1`: the half-inhibitory concentration (IC50) is 4.35 µM.

For `CC1=C(C)C(N(c2ccccc2)c2ccccc2)N(CCC(C)C)C1=O` (centres undefined), the IC50 was 19.2 µM.

On to `CC1CC[C@]2(NC1)O[C@H]1C[C@H]3[C@@H]4CC[C@H]5C[C@@H](O[C@@H]6O[C@H](CO)[C@H](O[C@@H]7O[C@H](CO)[C@@H](O)[C@H](O[C@@H]8OC[C@@H](O)[C@H](O)[C@H]8O)[C@H]7O[C@@H]7O[C@H](CO)[C@@H](O)[C@H](O)[C@H]7O)[C@H](O)[C@H]6O)CC[C@]5(C)[C@H]4CC[C@]3(C)[C@H]1[C@@H]2C` (some centres undefined), for which the IC50 was 40 µM.

For `COc1ccc(C(C(=O)NC2CCCCC2)N(C(=O)CCCC(=O)Nc2ccccn2)c2ccccc2C)cc1` (centres undefined), the IC50 is 22.5 µM.

Consider `COc1ccc(NC(=O)Cn2cc(C(=O)c3ccc(C)cc3)c(=O)c3ccccc32)cc1`, for which the IC50 is 1.98 µM.

As to `O=C(NCc1ccccc1)Nc1cccc2ccccc12`, the half-maximal inhibitory concentration (IC50) is 34 µM.

For `COc1ccc(-n2c(SCC(=O)c3ccc(F)cc3)nnc2-c2cccnc2)cc1`, the IC50 was 23.8 µM.

`O=C(NCc1ccco1)c1ccc2c(c1)N(Cc1cccc(F)c1)C(=O)c1ccccc1S2`: the IC50 was > 50 µM (inactive).

Turning to `CC1CCN(Cc2nnc(-c3cn(CC(=O)NC4CCCCC4)c4ccccc34)o2)CC1`, the IC50 is > 50 µM (inactive).

Take `CC(=O)c1ccc(NC(=O)c2nc3ccccc3nc2N2CCOCC2)cc1`: the IC50 was > 50 µM (inactive).

With `COc1cccc(N2CCN(C(=O)Nc3ccc4c(c3)NC(=O)CO4)CC2)c1`, the IC50 is 26.6 µM.

Consider `CC(=O)c1cc2c(=O)c3c(C(=O)O)c(O)c(O)cc3oc2c(C(C)=O)c1-c1coc2cc(O)c(O)c(C(=O)O)c2c1=O`, for which the IC50 is 0.49 µM.

On to `COc1ccc(COc2ccc3c(C)c(CC(=O)N4CC[C@@]5(O)CCCC[C@H]5C4)c(=O)oc3c2)cc1`, for which the IC50 was 2.55 µM.

Turning to `COc1cccc(NC(=O)Nc2ccc(CCc3nc4ccccc4[nH]3)cc2)c1`, the IC50 is 49.2 µM.

Turning to `O=C(CN1C(=O)NC2(CCCCC2)C1=O)Nc1ccc([N+](=O)[O-])cc1`, the IC50 is 32.8 µM.

In the case of `CCc1ccc(-n2nc(C)c3c2NC(=O)CC3C(=O)c2ccc3c(c2)OCCO3)cc1` (centres undefined), the IC50 is 27.5 µM.

Take `O=C(c1nnn(Cc2ccc(Cl)cc2)c1-n1cccc1)N1CCCC1`: the IC50 was > 50 µM (inactive).

With `O=C(Cn1c(=O)n(CCCC(=O)N2CC=C(c3ccccc3)CC2)c(=O)c2ccccc21)NCCC1=CCCCC1`, the IC50 is 35 µM.

As to `COc1ccccc1NS(=O)(=O)c1cccc(NC(=O)CCc2nc3ccccc3s2)c1`, the IC50 was 4.09 µM.

For `CC(C)N1CC2CN(Cc3ccc(Cl)cc3)CCN2Cc2ccccc21` (centres undefined), the IC50 was > 50 µM (inactive).

For the compound `COc1ccc(-n2c(=O)c(CCC(=O)O)nc3ccccc32)cc1`, the IC50 is > 50 µM (inactive).

For `O=C(COc1nsnc1N1CCOCC1)Nc1ccc(F)c(F)c1`, the IC50 is > 50 µM (inactive).

As to `COc1ccc(NC(=O)CN2C(=O)c3ccccc3Sc3ccc(C(=O)N4CCCC4)cc32)c(OC)c1`, the IC50 is 17.7 µM.

`O=C(CCSc1ccc(Cl)cc1)c1cccs1`: the half-inhibitory concentration (IC50) was 17.1 µM.

Regarding `O=C(c1cnccn1)N1CCc2[nH]c3ccc(F)cc3c2C1`, the IC50 was > 50 µM (inactive).

Take `CCOc1ccc(C2=NCCNC3=C2C(c2ccccc2)N(c2ccccc2)C3=O)cc1` (centres undefined): the IC50 was > 50 µM (inactive).

Turning to `O=[N+]([O-])c1ccc(N2CCN(c3ncnc4c3[nH]c3ccc(F)cc34)CC2)cc1`, the IC50 is 0.247 µM.
